Patent US10336792B2, “Antimicrobial peptide dendrimers” (priority 2014, dated 2019)
Values after ≈ are worked out from the molar mass of the structure shown. Positions of bridges follow the written chain, without caps; N, C: chain ends. Residues, ends and D or L forms follow the SMILES beside them. Groups on a side chain read outwards from the residue. Chains are numbered I, II in the order given. *: point of attachment. Stearoyl = CCCCCCCCCCCCCCCCCC(=O)*; Octanoyl = CCCCCCCC(=O)*; Hexanoyl = CCCCCC(=O)*

Legend:
Type in all cases: cell-based
[1] = test system: Escherichia coli (strain DH5α); details: DH5α
In short: (§1)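 Broth microdilution MIC in LB; overnight cultures diluted to OD600 0.001 and mixed 1:1 with ⅔-serially diluted samples (stock 1 mg mL^−1 in H2O), 37° C for 18-24 h. MTT (0.1%) added; MIC read by eye as lowest concentration inhibiting visible growth (yellow).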

[2] = test system: Bacillus subtilis (strain BR151); details: strain BR151
In short: as §1

[3] = test system: Pseudomonas aeruginosa (strain PA01); assay: microbe, parasite or virus in culture; details: strain
In short: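 P. aeruginosa PAO1 grown overnight in LB, diluted to OD600 0.001 and mixed with ⅔-step peptide dilutions, then incubated at 37 °C for 18–24 h. After MTT staining, the lowest concentration with no visible growth was read by eye as the MIC.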

SMILES	MIC E. coli DH5α [1] [µg/mL]	MIC B. subtilis BR151 [2] [µg/mL]	MIC P. aeruginosa PAO1 [3] [µg/mL]
CC(C)C[C@H](NC(=O)[C@H](CCCCN)NC(=O)[C@H](CCCCNC(=O)[C@H](CC(C)C)NC(=O)[C@@H](N)CCCCN)NC(=O)[C@H](CC(C)C)NC(=O)[C@@H](N)CCCCN)C(=O)NCCCC[C@H](NC(=O)[C@H](CC(C)C)NC(=O)[C@H](CCCCN)NC(=O)[C@H](CCCCNC(=O)[C@H](CC(C)C)NC(=O)[C@@H](N)CCCCN)NC(=O)[C@H](CC(C)C)NC(=O)[C@@H](N)CCCCN)C(=O)N[C@@H](CCCCN)C(=O)N[C@@H](CC(C)C)C(=O)N[C@@H](CSSC[C@H](NC(=O)[C@H](CC(C)C)NC(=O)[C@H](CCCCN)NC(=O)[C@H](CCCCNC(=O)[C@H](CC(C)C)NC(=O)[C@H](CCCCN)NC(=O)[C@H](CCCCNC(=O)[C@H](CC(C)C)NC(=O)[C@@H](N)CCCCN)NC(=O)[C@H](CC(C)C)NC(=O)[C@@H](N)CCCCN)NC(=O)[C@H](CC(C)C)NC(=O)[C@H](CCCCN)NC(=O)[C@H](CCCCNC(=O)[C@H](CC(C)C)NC(=O)[C@@H](N)CCCCN)NC(=O)[C@H](CC(C)C)NC(=O)[C@@H](N)CCCCN)C(N)=O)C(N)=O [CCS-3 dimer, ((KL)4(KKL)2KKLC)2] (I: H-KLK([Leu-Lys])KLKKLC-NH2 / II: H-KLK([Leu-Lys])KLKKLC-NH2 / III: H-KLK([Leu-Lys])KL / IV: H-KLK([Leu-Lys])KL; amide I:6-III:C, II:6-IV:C; disulfide I:9-II:9; N-terminus assumed)	4 (≈ 0.912 µM)	4 (≈ 0.912 µM)	3 (≈ 0.684 µM)
NCCCC[C@H](NC(=O)[C@H](CCCCNC(=O)[C@H](Cc1ccccc1)NC(=O)[C@H](CCCCN)NC(=O)[C@H](CCCCNC(=O)[C@H](Cc1ccccc1)NC(=O)[C@H](CCCCN)NC(=O)[C@H](CCCCNC(=O)[C@H](Cc1ccccc1)NC(=O)[C@@H](N)CCCCN)NC(=O)[C@H](Cc1ccccc1)NC(=O)[C@@H](N)CCCCN)NC(=O)[C@H](Cc1ccccc1)NC(=O)[C@H](CCCCN)NC(=O)[C@H](CCCCNC(=O)[C@H](Cc1ccccc1)NC(=O)[C@@H](N)CCCCN)NC(=O)[C@H](Cc1ccccc1)NC(=O)[C@@H](N)CCCCN)NC(=O)[C@H](Cc1ccccc1)NC(=O)[C@H](CCCCN)NC(=O)[C@H](CCCCNC(=O)[C@H](Cc1ccccc1)NC(=O)[C@H](CCCCN)NC(=O)[C@H](CCCCNC(=O)[C@H](Cc1ccccc1)NC(=O)[C@@H](N)CCCCN)NC(=O)[C@H](Cc1ccccc1)NC(=O)[C@@H](N)CCCCN)NC(=O)[C@H](Cc1ccccc1)NC(=O)[C@H](CCCCN)NC(=O)[C@H](CCCCNC(=O)[C@H](Cc1ccccc1)NC(=O)[C@@H](N)CCCCN)NC(=O)[C@H](Cc1ccccc1)NC(=O)[C@@H](N)CCCCN)C(=O)N[C@@H](Cc1ccccc1)C(N)=O [MSt-174, (KF)8(KKF)4(KKF)2(KKF)] (I: H-KFK([Phe-Lys])KFKKFKKF-NH2 / II: H-KFK([Phe-Lys])KFKKF / III: H-KFK([Phe-Lys])KF / IV: H-KFK([Phe-Lys])KF; amide I:6-IV:C, I:9-II:C, II:6-III:C)	7 (≈ 1.39 µM)	2 (≈ 0.396 µM)	6 (≈ 1.19 µM)
CCCCCC(=O)NCCCC[C@H](NC(=O)[C@H](CC(C)C)NC(=O)[C@H](CCCCN)NC(=O)[C@H](CCCCNC(=O)[C@H](CC(C)C)NC(=O)[C@H](CCCCN)NC(=O)[C@H](CCCCNC(=O)[C@H](CC(C)C)NC(=O)[C@H](CCCCN)NC(=O)[C@H](CCCCNC(=O)[C@H](CC(C)C)NC(=O)[C@@H](N)CCCCN)NC(=O)[C@H](CC(C)C)NC(=O)[C@@H](N)CCCCN)NC(=O)[C@H](CC(C)C)NC(=O)[C@H](CCCCN)NC(=O)[C@H](CCCCNC(=O)[C@H](CC(C)C)NC(=O)[C@@H](N)CCCCN)NC(=O)[C@H](CC(C)C)NC(=O)[C@@H](N)CCCCN)NC(=O)[C@H](CC(C)C)NC(=O)[C@H](CCCCN)NC(=O)[C@H](CCCCNC(=O)[C@H](CC(C)C)NC(=O)[C@H](CCCCN)NC(=O)[C@H](CCCCNC(=O)[C@H](CC(C)C)NC(=O)[C@@H](N)CCCCN)NC(=O)[C@H](CC(C)C)NC(=O)[C@@H](N)CCCCN)NC(=O)[C@H](CC(C)C)NC(=O)[C@H](CCCCN)NC(=O)[C@H](CCCCNC(=O)[C@H](CC(C)C)NC(=O)[C@@H](N)CCCCN)NC(=O)[C@H](CC(C)C)NC(=O)[C@@H](N)CCCCN)C(N)=O [MSt-264, (KL)8(KKL)4(KKL)2(KKLKC6)] (I: H-KLK([Leu-Lys])KLKKLKKLK(Hexanoyl)-NH2 / II: H-KLK([Leu-Lys])KLKKL / III: H-KLK([Leu-Lys])KL / IV: H-KLK([Leu-Lys])KL; amide I:6-IV:C, I:9-II:C, II:6-III:C)	1 (≈ 0.21 µM)	5 (≈ 1.05 µM)	1 (≈ 0.21 µM)

Results, then the compound that gave them:

MIC E. coli DH5α [1] [µg/mL]	MIC B. subtilis BR151 [2] [µg/mL]	MIC P. aeruginosa PAO1 [3] [µg/mL]	SMILES
3 (≈ 1.21 µM)	4 (≈ 1.61 µM)	4 (≈ 1.61 µM)	CCCCCCCCCCCCCCCCCC(=O)NCCCC[C@H](NC(=O)[C@H](CC(C)C)NC(=O)[C@H](CCCCN)NC(=O)[C@H](CCCCNC(=O)[C@H](CC(C)C)NC(=O)[C@H](CCCCN)NC(=O)[C@H](CCCCNC(=O)[C@H](CC(C)C)NC(=O)[C@@H](N)CCCCN)NC(=O)[C@H](CC(C)C)NC(=O)[C@@H](N)CCCCN)NC(=O)[C@H](CC(C)C)NC(=O)[C@H](CCCCN)NC(=O)[C@H](CCCCNC(=O)[C@H](CC(C)C)NC(=O)[C@@H](N)CCCCN)NC(=O)[C@H](CC(C)C)NC(=O)[C@@H](N)CCCCN)C(N)=O [MSt-286, (KL)4(KKL)2(KKLKC18)] (I: H-KLK([Leu-Lys])KLKKLK(Stearoyl)-NH2 / II: H-KLK([Leu-Lys])KL; amide I:6-II:C; N-terminus assumed)
1 (≈ 0.426 µM)	4 (≈ 1.71 µM)	1 (≈ 0.426 µM)	CCCCCCCC(=O)NCCCC[C@H](NC(=O)[C@H](CC(C)C)NC(=O)[C@H](CCCCN)NC(=O)[C@H](CCCCNC(=O)[C@H](CC(C)C)NC(=O)[C@H](CCCCN)NC(=O)[C@H](CCCCNC(=O)[C@H](CC(C)C)NC(=O)[C@@H](N)CCCCN)NC(=O)[C@H](CC(C)C)NC(=O)[C@@H](N)CCCCN)NC(=O)[C@H](CC(C)C)NC(=O)[C@H](CCCCN)NC(=O)[C@H](CCCCNC(=O)[C@H](CC(C)C)NC(=O)[C@@H](N)CCCCN)NC(=O)[C@H](CC(C)C)NC(=O)[C@@H](N)CCCCN)C(N)=O [MSt-261, (KL)4(KKL)2(KKLKC8)] (I: H-KLK([Leu-Lys])KLKKLK(Octanoyl)-NH2 / II: H-KLK([Leu-Lys])KL; amide I:6-II:C)
